In US9266839B2, “Trifluoromethyl pyrazolyl guanidine F1F0-ATPase inhibitors and therapeutic uses thereof” (Lycera Corporation, priority 2013, dated 2016):

Columns and labels:
[1] = test system: Ramos cells; experiment: Cytotoxicity in Ramos cells; format: cell-based; details: Homo sapiens; cytotoxicity in Ramos cells; read-out: Ramos Cell EC50
Description: (§1) Compounds in Table 5 below were tested for activity against F1F0-ATPase by measuring the ability of the compounds to inhibit ATP synthesis. In addition, the compounds were assessed for cytotoxicity in Ramos cells. Inhibition of F1F0-ATPase activity in synthesizing ATP and cytotoxicity in Ramos cells were measured according to the procedures described in K. M. Johnson et al. Chemistry & Biology 2005, 12, 485-496.
(§2) The activity of compound 3-chloro-N-(((3-chloro-5-fluorophenyl)amino)((5-(trifluoromethyl)-1H-pyrazol-3-yl)amino)methylene)benzamide towards F1F0-ATPase and Ramos cells was evaluated by performing multiple times the assay procedures described in Part I. In particular, activity against F1F0-ATPase was evaluated by measuring the ability of the compound to inhibit ATP synthesis in twelve independent experiments. Cytotoxicity towards Ramos cells was measured in thirteen independent experiments. Consistent with the procedure in Part I, the compound was dissolved in dimethylsulfoxide to form a solution that was applied to F1F0-ATPase or Ramos cells, and the assays were performed according to procedures described in K. M. Johnson et al. Chemistry & Biology 2005, 12, 485-496.
(§3) Similarly, EC50 values (for cytotoxicity towards Ramos cells) from multiple replications of the experimental procedure were averaged. The mean EC50 value for 3-chloro-N-(((3-chloro-5-fluorophenyl)amino)((5-(trifluoromethyl)-1H-pyrazol-3-yl)amino)methylene)benzamide for cytotoxicity towards Ramos cells was determined to be 59±6 nM.

[2] = target: Cytochrome P450 2D6 (Homo sapiens (Human), UniProt P10635); experiment: Inhibition of Cytochrome P450 2D6 in human liver microsomes; format: in vitro ADME; details: 30 minutes incubation with test compound, substrate dextromethorphan 10 μM, read-out: CYP2D6 IC50
Chain of Cytochrome P450 2D6 (P10635 whole entry): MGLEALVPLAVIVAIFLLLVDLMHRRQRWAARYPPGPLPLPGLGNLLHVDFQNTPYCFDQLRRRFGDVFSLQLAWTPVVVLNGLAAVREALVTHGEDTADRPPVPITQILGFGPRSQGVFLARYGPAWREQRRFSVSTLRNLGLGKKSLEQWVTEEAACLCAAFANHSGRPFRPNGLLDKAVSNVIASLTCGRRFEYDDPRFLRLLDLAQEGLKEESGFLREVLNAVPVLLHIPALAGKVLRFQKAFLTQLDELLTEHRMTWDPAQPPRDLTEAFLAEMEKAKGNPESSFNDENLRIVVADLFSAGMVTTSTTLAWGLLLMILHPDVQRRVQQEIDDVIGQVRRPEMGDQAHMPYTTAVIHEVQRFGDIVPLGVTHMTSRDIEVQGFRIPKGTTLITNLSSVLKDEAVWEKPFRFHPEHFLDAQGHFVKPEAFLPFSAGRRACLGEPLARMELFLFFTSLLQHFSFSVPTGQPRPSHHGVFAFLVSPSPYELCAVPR
Description: Master solutions were prepared containing human liver microsomes (Gibco, 0.2 mg/mL) and MgCl2 (5 mM) in potassium phosphate buffer (10 mM). To aliquots (169 μL) of the microsome solution was added test compound in acetonitrile (1 μL) and DMSO (1 μL) to provide final test compound concentrations of 0, 0.005, 0.05, 0.25, 1, 5, 10, and 25 μM.
NADPH (10 mM) in ultra-pure water (20 μL) was added, and this mixture was incubated at 37° C. for 30 minutes. The enzyme reaction then was initiated by the addition of enzyme substrate (dextromethorphan) dissolved in 1 μL of acetonitrile and 9 μL of ultra-pure water. The final substrate concentration was 10 μM.
After 20 minutes, the incubation mixture was diluted with 3 volumes of cold methanol containing imipramine (200 nM), labetalol (200 nM), and ketoprofen (2 μM) as internal standards. Samples were centrifuged at 16,000 g for 10 minutes, then an aliquot of the supernatant (200 μL) was removed and analyzed by LC/MS/MS.
LC/MS/MS analyses were performed in duplicate using a Shimadzu HPLC and an API 4000 mass spectrometer. Liquid chromatography employed a Phenomenex C18, 5 μm, 50×2 mm column fitted with a guard column. Solvent A was acetonitrile containing 0.1% v/v formic acid. Solvent B was water containing 0.1% v/v formic acid. […]
The formation of metabolites was evaluated by peak area, and data were analyzed using Prism 5.0 software (GraphPad). […]

[3] = Cytotoxicity in Ramos cells; format: cell-based; details: human, Ramos cells; mean of thirteen independent experiments; compound dissolved in dimethylsulfoxide; read-out: mean EC50 for cytotoxicity towards Ramos cells
Description: as §1, §2, §3

| SMILES | EC50 [1] [nM] | IC50 [2] [nM] | EC50 [3] [nM] |
| --- | --- | --- | --- |
| O=C(/N=C(/Nc1cc(F)cc(Cl)c1)Nc1cc(C(F)(F)F)[nH]n1)c1ccc(Cl)cc1 [Compound 4] | 120 | – | – |
| O=C(/N=C(/Nc1cccc(Cl)c1)Nc1cc(C(F)(F)F)[nH]n1)c1cccc(Cl)c1 [Compound 2, 3-chloro-N-(((3-chlorophenyl)amino)((5-(trifluoromethyl)-1H-pyrazol-3-yl)amino)methylene)benzamide, reference compound] | 100 | 1100 | – |
| O=C(/N=C(/Nc1cc(F)cc(Cl)c1)Nc1cc(C(F)F)[nH]n1)c1ccc(Cl)cc1 [Compound 3] | 1840 | – | – |
| O=C(/N=C(/Nc1cc(F)cc(Cl)c1)Nc1cc(C(F)(F)F)[nH]n1)c1cccc(Cl)c1 [Compound 1, 3-chloro-N-(((3-chloro-5-fluorophenyl)amino)((5-(trifluoromethyl)-1H-pyrazol-3-yl)amino)methylene)benzamide] | 50 | 3200 | 59 ± 6 |
